US11077100B2, “Tetrahydroquinoline derivatives as P2X7 receptor antagonists” (RaQualia Pharma Inc., priority 2017, dated 2021)
pIC50: −log10 of the molar value.

What was measured:
human P2X7 = human P2X7 (Homo sapiens (Human), UniProt Q99572); test: Human P2X7 functional assay (Ca2+ influx, Fluo-4, FDSS); type: cell-based; conditions: antagonistic activity with respect to the human P2X7 receptor; BzATP final concentration 80 microM
Procedure, shortened: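 Ca2+ influx was triggered with BzATP (80 μM final) after a 10-min room-temperature compound preincubation and monitored with Fluo-4 (ex 480/em 540 nm) on FDSS. The cells were HEK293 stably carrying FLAG-tagged human P2X7. Duplicate-averaged 7-point dose-responses gave IC50s.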

rat P2X7 = rat P2X7 (Rattus norvegicus (Rat), UniProt Q64663); test: Rat P2X7 functional assay (Ca2+ influx, Fluo-4, FDSS); type: cell-based; conditions: HEK293 cells stably expressing rat P2X7; BzATP final 10 microM; 7-point dose-response; read-out: Antagonistic activities with respect to the rat P2X7 receptor (IC50)
rat P2X7, sequence (Q64663 whole entry): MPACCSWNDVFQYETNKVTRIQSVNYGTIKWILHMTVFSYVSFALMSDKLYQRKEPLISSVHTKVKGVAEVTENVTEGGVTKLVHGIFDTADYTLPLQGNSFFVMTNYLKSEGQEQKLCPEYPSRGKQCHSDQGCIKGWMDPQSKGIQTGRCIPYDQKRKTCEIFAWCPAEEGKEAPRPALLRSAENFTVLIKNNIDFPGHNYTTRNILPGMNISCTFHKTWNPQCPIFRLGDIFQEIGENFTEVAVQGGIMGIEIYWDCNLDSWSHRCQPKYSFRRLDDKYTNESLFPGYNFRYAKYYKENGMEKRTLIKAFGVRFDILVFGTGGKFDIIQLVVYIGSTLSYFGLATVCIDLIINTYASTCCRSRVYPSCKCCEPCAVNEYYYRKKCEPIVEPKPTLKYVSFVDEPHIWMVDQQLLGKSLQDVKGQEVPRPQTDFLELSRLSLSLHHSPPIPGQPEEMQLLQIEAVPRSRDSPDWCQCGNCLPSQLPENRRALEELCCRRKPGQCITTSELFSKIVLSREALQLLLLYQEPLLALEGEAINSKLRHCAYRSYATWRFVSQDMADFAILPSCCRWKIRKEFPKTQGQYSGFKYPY
Procedure, shortened: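 IC50 derived from 7-point dose-response in duplicate, measuring inhibition of BzATP-evoked (final 10 microM) intracellular Ca2+ increase by Fluo-4 fluorescence on FDSS. Rat P2X7-HEK293 cells were exposed to compound for 10 min in the dark beforehand.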

human P2X7, sequence (Q99572 whole entry): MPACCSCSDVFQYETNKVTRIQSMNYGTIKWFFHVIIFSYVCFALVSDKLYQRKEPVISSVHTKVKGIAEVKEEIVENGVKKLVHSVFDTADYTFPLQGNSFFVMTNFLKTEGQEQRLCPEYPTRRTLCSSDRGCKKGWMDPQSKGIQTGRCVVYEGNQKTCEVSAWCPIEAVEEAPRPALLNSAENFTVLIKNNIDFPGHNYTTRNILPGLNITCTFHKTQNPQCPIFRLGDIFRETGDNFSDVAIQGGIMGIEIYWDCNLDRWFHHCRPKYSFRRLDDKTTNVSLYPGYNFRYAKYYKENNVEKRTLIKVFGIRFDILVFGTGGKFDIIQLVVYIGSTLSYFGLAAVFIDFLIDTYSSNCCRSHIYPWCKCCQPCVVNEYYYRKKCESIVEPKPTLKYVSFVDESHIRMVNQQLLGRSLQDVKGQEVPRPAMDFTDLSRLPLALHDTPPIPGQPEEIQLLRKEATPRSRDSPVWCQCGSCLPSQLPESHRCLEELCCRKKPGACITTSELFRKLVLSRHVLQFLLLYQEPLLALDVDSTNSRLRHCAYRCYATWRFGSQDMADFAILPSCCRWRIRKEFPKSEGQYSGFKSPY

Row | Structure (SMILES) | pIC50 (human P2X7) | pIC50 (rat P2X7)
1 | C[C@]1(O)CC[C@@](F)(C(=O)NCc2ccc(Cl)cc2F)c2cccnc21 [Example 264, (5S,8S)-N-(4-chloro-2-fluorobenzyl)-5-fluoro-8-hydroxy-8-methyl-5,6,7,8-tetrahydroquinoline-5-carboxamide] | > 7.30 | > 6.00
2 | O=C(NCc1ncc(Cl)cc1Cl)[C@]1(F)CC[C@H](O)c2ncccc21 [Example 177, (5S,8S)-N-((3,5-dichloropyridin-2-yl)methyl)-5-fluoro-8-hydroxy-5,6,7,8-tetrahydroquinoline-5-carboxamide] | > 7.30 | > 6.00
3 | CO[C@H]1CC[C@@](F)(C(=O)NCc2ccc(F)cc2F)c2cccnc21 [Example 342, (5S,8S)-N-(2,4-difluorobenzyl)-5-fluoro-8-methoxy-5,6,7,8-tetrahydroquinoline-5-carboxamide] | 7.00 to 7.30 | > 6.00
4 | O=C(NCc1c(Cl)cc(Cl)cc1CO)C1(F)CCC(O)c2ncccc21 (centres unmarked) [Example 20, N-(2,4-dichloro-6-(hydroxymethyl)benzyl)-5-fluoro-8-hydroxy-5,6,7,8-tetrahydro quinoline-5-carboxamide] | > 7.30 | > 6.00
5 | O=C(NCc1cc(F)cc(F)c1)[C@]1(F)CC[C@H](O)c2ncccc21 [Example 221, (5S,8S)-N-(3,5-difluorobenzyl)-5-fluoro-8-hydroxy-5,6,7,8-tetrahydroquinoline-5-carboxamide] | 6.00 to 6.52 | > 6.00
6 | COC1CN(C[C@]2(O)CC[C@@](F)(C(=O)NCc3ccc(F)cc3Cl)c3cccnc32)C1 (relative stereo) [Example 53, (5S*,8R*)-N-(2-chloro-4-fluorobenzyl)-5-fluoro-8-hydroxy-8-((3-methoxy-azetidin-1-yl)methyl)-5,6,7,8-tetrahydro-quinoline-5-carboxamide] | > 7.30 | > 6.00
7 | CS(=O)(=O)C[C@]1(O)CC[C@@](F)(C(=O)NCc2ccc(Cl)cc2Cl)c2cccnc21 [Example 298, (5S,8S)-N-(2,4-dichlorobenzyl)-5-fluoro-8-hydroxy-8-((methylsulfonyl)methyl)-5,6,7,8-tetrahydroquinoline-5-carboxamide] | > 7.30 | > 6.00
8 | O=C(NCc1c(F)cccc1Cl)[C@]1(F)CC[C@H](O)c2ncccc21 [Example 171, (5S,8S)-N-(2-chloro-6-fluorobenzyl)-5-fluoro-8-hydroxy-5,6,7,8-tetrahydroquinoline-5-carboxamide] | > 7.30 | > 6.00
9 | O=C(NCc1cccc(Cl)c1)[C@]1(F)CC[C@H](O)c2ncccc21 [Example 205, (5S,8S)-N-(3-chlorobenzyl)-5-fluoro-8-hydroxy-5,6,7,8-tetrahydroquinoline-5-carboxamide] | 7.00 to 7.30 | > 6.00
10 | CO[C@H]1CC[C@](F)(C(=O)NCc2c(Cl)cc(Cl)cc2CO)c2cccnc21 [Example 333, (5R,8S)-N-(2,4-dichloro-6-(hydroxymethyl)benzyl)-5-fluoro-8-methoxy-5,6,7,8-tetrahydroquinoline-5-carboxamide] | 6.52 to 7.00 | > 6.00
11 | O=C(NCc1ccc(F)c(F)c1F)[C@]1(F)CC[C@H](OCCO)c2ncccc21 [Example 345, (5S,8S)-5-fluoro-8-(2-hydroxyethoxy)-N-(2.3.4-trifluorobenzyl)-5,6,7,8-tetrahydroquinoline-5-carboxamide] | > 7.30 | > 6.00
12 | O=C(NCc1ccc(F)c(F)c1F)[C@]1(F)CC[C@](O)(CO)c2ncccc21 [Example 309, (5S,8R)-5-fluoro-8-hydroxy-8-(hydroxymethyl)-N-(2,3,4-trifluorobenzyl)-5,6,7,8-tetrahydroquinoline-5-carboxamide] | 5.52 to 6.00 | > 6.00
13 | CC1(O)CCC(F)(C(=O)NCc2cccc(C(F)(F)F)c2Cl)c2cccnc21 (centres unmarked) [Example 58, N-(2-chloro-3-(trifluoro-methyl)benzyl)-5-fluoro-8-hydroxy-8-methyl-5,6,7,8-tetrahydro-quinoline-5-carboxamide] | > 7.30 | > 6.00
14 | O=C(NCc1ccc(F)c(F)c1F)[C@@H]1CC[C@H](O)c2ncccc21 [Example 72, (5R,8S)-8-hydroxy-N-(2,3,4-trifluorobenzyl)-5,6,7,8-tetrahydroquinoline-5-carboxamide] | > 7.30 | > 6.00
15 | O=C(NCc1ccc(Cl)cc1Cl)[C@]1(F)CC[C@@](O)(CS(=O)(=O)CCO)c2ncccc21 [Example 300, (5S,8S)-N-(2,4-dichlorobenzyl)-5-fluoro-8-hydroxy-8-(((2-hydroxyethyl)sulfonyl)methyl)-5,6,7,8-tetrahydroquinoline-5-carboxamide] | > 7.30 | > 6.00
16 | C[S+]([O-])C[C@]1(O)CC[C@@](F)(C(=O)NCc2ccc(F)cc2Cl)c2cccnc21 (stereo partly drawn) [Example 296, (5S,8S)-N-(2-chloro-4-fluorobenzyl)-5-fluoro-hydroxy-8-((methylsulfinyl)methyl)-5,6,7,8-tetrahydroquinoline-5-carboxamide] | 7.00 to 7.30 | > 6.00

Row | Structure (SMILES) | pIC50 (human P2X7) | pIC50 (rat P2X7)
17 | O=C(NCc1ccc(Cl)c(F)c1)[C@]1(F)CC[C@H](O)c2ncccc21 [Example 206, (5S,8S)-N-(4-chloro-3-fluorobenzyl)-5-fluoro-8-hydroxy-5,6,7,8-tetrahydroquinoline-5-carboxamide] | 6.52 to 7.00 | > 6.00
18 | O=C(NCc1c(Cl)cc(F)cc1CO)[C@]1(F)CC[C@@](O)(CO)c2ncccc21 [Example 317, (5S,8S)-N-(2-chloro-4-fluoro-6-(hydroxymethyl)benzyl)-5-fluoro-8-hydroxy-8-(hydroxymethyl)-5,6,7,8-tetrahydroquinoline-5-carboxamide] | > 7.30 | > 6.00
19 | C[C@@H](NC(=O)[C@]1(F)CC[C@](O)(CO)c2ncccc21)c1ccc(F)cc1Cl [Example 328, (5S,8R)-N-((R)-1-(2-chloro-4-fluorophenyl)ethyl)-5-fluoro-8-hydroxy-8-(hydroxymethyl)-5,6,7,8-tetrahydroquinoline-5-carboxamide] | 6.52 to 7.00 | > 6.00
20 | CO[C@H]1CC[C@@](F)(C(=O)NCc2ccc(F)cc2Cl)c2cccnc21 [Example 337, (5S,8S)-N-(2-chloro-4-fluorobenzyl)-5-fluoro-8-methoxy-5,6,7,8-tetrahydroquinoline-5-carboxamide] | > 7.30 | > 6.00
21 | O=C(NCc1ccc(Cl)cc1Cl)[C@]1(F)CC[C@@](O)(CO)c2ncccc21 [Example 304, (5S,8S)-N-(2,4-dichlorobenzyl)-5-fluoro-8-hydroxy-8-(hydroxymethyl)-5,6,7,8-tetrahydroquinoline-5-carboxamide] | > 7.30 | > 6.00
22 | O=C(NCc1c(Cl)ccc(Cl)c1Cl)[C@]1(F)CC[C@H](O)c2ncccc21 [Example 165, (5S,8S)-5-fluoro-8-hydroxy-N-(2,3,6-trichlorobenzyl)-5,6,7,8-tetrahydroquinoline-5-carboxamide] | > 7.30 | > 6.00
23 | O=C(NCc1ccc(Cl)c(F)c1F)[C@]1(F)CC[C@H](O)c2ncccc21 [Example 183, (5S,8S)-N-(4-chloro-2,3-difluorobenzyl)-5-fluoro-8-hydroxy-5,6,7,8-tetrahydroquinoline-5-carboxamide] | > 7.30 | > 6.00
24 | CSC[C@]1(O)CC[C@@](F)(C(=O)NCc2ccc(F)cc2Cl)c2cccnc21 [Example 288, (5S,8S)-N-(2-chloro-4-fluorobenzyl)-5-fluoro-8-hydroxy-8-((methylthio)methyl)-5,6,7,8-tetrahydroquinoline-5-carboxamide] | > 7.30 | > 6.00
25 | CC(NC(=O)[C@]1(F)CC[C@H](O)c2ncccc21)C12CC3CC(CC(C3)C1)C2 (stereo partly drawn) [Example 231, (5S,8S)-N-(1-(adamantan-1-yl)ethyl)-5-fluoro-8-hydroxy-5,6,7,8-tetrahydroquinoline-5-carboxamide] | > 7.30 | > 6.00
26 | Cc1cc(Cl)cc(Cl)c1CNC(=O)[C@H]1C[C@H](O)c2ncccc21 [Example 83, (5S,7S)-N-(2,4-dichloro-6-methylbenzyl)-7-hy-droxy-5,7-dihydro-5H-cyclopenta[b]pyridin-5-carboxamide] | 6.52 to 7.00 | > 6.00
27 | O=C(NCc1cccc(Cl)c1Cl)[C@@]1(F)CC[C@@H](O)c2ncccc21 [Example 158, (5R,8R)-N-(2,3-dichlorobenzyl)-5-fluoro-8-hydroxy-5,6,7,8-tetrahydroquinoline-5-carboxamide] | > 7.30 | > 6.00
28 | O=C1CC[C@@](F)(C(=O)NCc2ccc(Cl)cc2Cl)c2cccnc21 [Example 248, (S)-N-(2,4-dichloro-benzyl)-5-fluoro-8-oxo-5,6,7,8-tetrahydroquinoline-5-carboxamide] | > 7.30 | > 6.00
29 | O=C1CCC(F)(C(=O)NCc2cccc(C(F)(F)F)c2Cl)c2cccnc21 (centres unmarked) [Example 13, N-(2-chloro-3-(trifluoromethyl)benzyl)-5-fluoro-8-oxo-5,6,7,8-tetrahydro-quinoline-5-carboxamide] | > 7.30 | > 6.00
30 | CNCC1(O)CCC(C(=O)NCc2c(C)cc(Cl)cc2Cl)c2cccnc21 (centres unmarked) [Example 44, N-(2,4-dichloro-6-methylbenzyl)-8-hydroxy-8-((methyl-amino)methyl)-5,6,7,8-tetrahydro-quinoline-5-carboxamide] | > 7.30 | > 6.00
31 | O=C1CC[C@@](F)(C(=O)NCc2ccc(F)c(F)c2F)c2cccnc21 [Example 254, (S)-5-fluoro-8-oxo-N-(2,3,4-trifluorobenzyl)-5,6,7,8-tetrahydro-quinoline-5-carboxamide] | 6.00 to 6.52 | > 6.00
